Source: ChEMBL document CHEMBL4507277

Legend:
[1] = system: Tyrosine-protein kinase ABL1 (Homo sapiens), P00519 [F317I]; settings: Compound concentration 1000.0 nM
[2] = system: Tyrosine-protein kinase ABL1 (Homo sapiens), P00519 [F317I]; settings: Compound concentration 1000.0 nM; remark: listed apart in the source
[3] = system: Tyrosine-protein kinase ABL1 (Homo sapiens), P00519 [F317L]; settings: Compound concentration 1000.0 nM
[4] = system: Tyrosine-protein kinase ABL1 (Homo sapiens), P00519 [T315I]; settings: Compound concentration 1000.0 nM
[5] = molecular target: Atypical kinase COQ8B, mitochondrial (Homo sapiens) (UniProt Q96D53); settings: Compound concentration 1000.0 nM
[6] = molecular target: 5'-AMP-activated protein kinase catalytic subunit alpha-1 (Homo sapiens) (UniProt Q13131); settings: Compound concentration 1000.0 nM
[7] = molecular target: Ankyrin repeat and protein kinase domain-containing protein 1 (Homo sapiens) (UniProt Q8NFD2); settings: Compound concentration 1000.0 nM
[8] = molecular target: Aurora kinase A (Homo sapiens) (UniProt O14965); settings: Compound concentration 1000.0 nM
[9] = molecular target: Tyrosine-protein kinase BTK (Homo sapiens) (UniProt Q06187); settings: Compound concentration 1000.0 nM
[10] = molecular target: Calcium/calmodulin-dependent protein kinase type II subunit delta (Homo sapiens) (UniProt Q13557); settings: Compound concentration 1000.0 nM
[11] = molecular target: Dual specificity protein kinase CLK1 (Homo sapiens) (UniProt P49759); settings: Compound concentration 1000.0 nM
[12] = molecular target: Epithelial discoidin domain-containing receptor 1 (Homo sapiens) (UniProt Q08345); settings: Compound concentration 1000.0 nM
[13] = molecular target: Serine/threonine-protein kinase 17B (Homo sapiens) (UniProt O94768); settings: Compound concentration 1000.0 nM
[14] = system: Epidermal growth factor receptor (Homo sapiens), P00533 [G719C]; settings: Compound concentration 1000.0 nM
[15] = system: Epidermal growth factor receptor (Homo sapiens), P00533 [L861Q]; settings: Compound concentration 1000.0 nM
[16] = molecular target: Ephrin type-A receptor 2 (Homo sapiens) (UniProt P29317); settings: Compound concentration 1000.0 nM
[17] = molecular target: Ephrin type-B receptor 2 (Homo sapiens) (UniProt P29323); settings: Compound concentration 1000.0 nM
[18] = molecular target: Mitogen-activated protein kinase 7 (Homo sapiens) (UniProt Q13164); settings: Compound concentration 1000.0 nM
[19] = molecular target: Mitogen-activated protein kinase 15 (Homo sapiens) (UniProt Q8TD08); settings: Compound concentration 1000.0 nM
[20] = system: Receptor-type tyrosine-protein kinase FLT3 (Homo sapiens), P36888 [K663Q]; settings: Compound concentration 1000.0 nM
[21] = system: Mast/stem cell growth factor receptor Kit (Homo sapiens), P10721 [D816H]; settings: Compound concentration 1000.0 nM
[22] = molecular target: Serine/threonine-protein kinase LATS1 (Homo sapiens) (UniProt O95835); settings: Compound concentration 1000.0 nM
[23] = molecular target: Tyrosine-protein kinase Lck (Homo sapiens) (UniProt P06239); settings: Compound concentration 1000.0 nM
[24] = molecular target: Leucine-rich repeat serine/threonine-protein kinase 2 (Homo sapiens) (UniProt Q5S007); settings: Compound concentration 1000.0 nM
[25] = molecular target: Mitogen-activated protein kinase kinase kinase 4 (Homo sapiens) (UniProt Q9Y6R4); settings: Compound concentration 1000.0 nM
[26] = molecular target: Mitogen-activated protein kinase kinase kinase kinase 3 (Homo sapiens) (UniProt Q8IVH8); settings: Compound concentration 1000.0 nM
[27] = molecular target: MAP/microtubule affinity-regulating kinase 3 (Homo sapiens) (UniProt P27448); settings: Compound concentration 1000.0 nM
[28] = molecular target: Dual specificity mitogen-activated protein kinase kinase 2 (Homo sapiens) (UniProt P36507); settings: Compound concentration 1000.0 nM
[29] = molecular target: Dual specificity mitogen-activated protein kinase kinase 4 (Homo sapiens) (UniProt P45985); settings: Compound concentration 1000.0 nM
[30] = molecular target: Tyrosine-protein kinase Mer (Homo sapiens) (UniProt Q12866); settings: Compound concentration 1000.0 nM
[31] = molecular target: Myosin light chain kinase (Homo sapiens) (UniProt Q32MK0); settings: Compound concentration 1000.0 nM
[32] = molecular target: Serine/threonine-protein kinase NIM1 (Homo sapiens) (UniProt Q8IY84); settings: Compound concentration 1000.0 nM
[33] = system: Phosphatidylinositol 4,5-bisphosphate 3-kinase catalytic subunit alpha isoform (Homo sapiens), P42336 [E545K]; settings: Compound concentration 1000.0 nM
[34] = molecular target: Phosphatidylinositol 4,5-bisphosphate 3-kinase catalytic subunit gamma isoform (Homo sapiens) (UniProt P48736); settings: Compound concentration 1000.0 nM
[35] = molecular target: Serine/threonine-protein kinase pim-1 (Homo sapiens) (UniProt P11309); settings: Compound concentration 1000.0 nM
[36] = molecular target: Membrane-associated tyrosine- and threonine-specific cdc2-inhibitory kinase (Homo sapiens) (UniProt Q99640); settings: Compound concentration 1000.0 nM
[37] = molecular target: Protein kinase C iota type (Homo sapiens) (UniProt P41743); settings: Compound concentration 1000.0 nM
[38] = molecular target: Serine/threonine-protein kinase SIK1 (Homo sapiens) (UniProt P57059); settings: Compound concentration 1000.0 nM
[39] = molecular target: STE20-like serine/threonine-protein kinase (Homo sapiens) (UniProt Q9H2G2); settings: Compound concentration 1000.0 nM
[40] = molecular target: Non-receptor tyrosine-protein kinase TYK2 (Homo sapiens) (UniProt P29597); settings: Compound concentration 1000.0 nM
[41] = molecular target: 5-hydroxytryptamine receptor 2A (Homo sapiens) (UniProt P28223); settings: Compound concentration 10.0 uM
[42] = molecular target: GABA-A receptor; anion channel (Rattus norvegicus) (UniProt O09028+P15431+P18506+P18508+P19969+P20236+P23574+P23576+P28471+P28473+P30191+P62813+P63079+P63138+Q91ZM7+Q9ES14); settings: Compound concentration 10.0 uM
[43] = molecular target: Alpha-2B adrenergic receptor (Homo sapiens) (UniProt P18089); settings: Compound concentration 10.0 uM

Atypical kinase COQ8B, mitochondrial (Homo sapiens), sequence (Q96D53 whole entry): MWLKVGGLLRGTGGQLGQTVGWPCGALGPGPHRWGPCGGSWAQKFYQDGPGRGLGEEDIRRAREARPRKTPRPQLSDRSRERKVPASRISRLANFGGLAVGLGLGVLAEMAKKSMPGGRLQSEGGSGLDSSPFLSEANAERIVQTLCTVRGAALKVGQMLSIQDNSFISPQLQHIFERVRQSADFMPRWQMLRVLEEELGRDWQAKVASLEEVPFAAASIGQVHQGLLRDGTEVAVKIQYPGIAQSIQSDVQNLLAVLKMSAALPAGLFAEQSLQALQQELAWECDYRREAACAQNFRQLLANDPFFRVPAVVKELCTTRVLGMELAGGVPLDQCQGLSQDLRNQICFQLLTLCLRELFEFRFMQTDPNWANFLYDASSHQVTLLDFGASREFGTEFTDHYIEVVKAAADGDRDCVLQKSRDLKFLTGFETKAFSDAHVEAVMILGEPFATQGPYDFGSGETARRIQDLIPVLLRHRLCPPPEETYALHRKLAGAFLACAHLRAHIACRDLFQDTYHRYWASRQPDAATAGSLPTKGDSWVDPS
Non-receptor tyrosine-protein kinase TYK2 (Homo sapiens), sequence (P29597 whole entry): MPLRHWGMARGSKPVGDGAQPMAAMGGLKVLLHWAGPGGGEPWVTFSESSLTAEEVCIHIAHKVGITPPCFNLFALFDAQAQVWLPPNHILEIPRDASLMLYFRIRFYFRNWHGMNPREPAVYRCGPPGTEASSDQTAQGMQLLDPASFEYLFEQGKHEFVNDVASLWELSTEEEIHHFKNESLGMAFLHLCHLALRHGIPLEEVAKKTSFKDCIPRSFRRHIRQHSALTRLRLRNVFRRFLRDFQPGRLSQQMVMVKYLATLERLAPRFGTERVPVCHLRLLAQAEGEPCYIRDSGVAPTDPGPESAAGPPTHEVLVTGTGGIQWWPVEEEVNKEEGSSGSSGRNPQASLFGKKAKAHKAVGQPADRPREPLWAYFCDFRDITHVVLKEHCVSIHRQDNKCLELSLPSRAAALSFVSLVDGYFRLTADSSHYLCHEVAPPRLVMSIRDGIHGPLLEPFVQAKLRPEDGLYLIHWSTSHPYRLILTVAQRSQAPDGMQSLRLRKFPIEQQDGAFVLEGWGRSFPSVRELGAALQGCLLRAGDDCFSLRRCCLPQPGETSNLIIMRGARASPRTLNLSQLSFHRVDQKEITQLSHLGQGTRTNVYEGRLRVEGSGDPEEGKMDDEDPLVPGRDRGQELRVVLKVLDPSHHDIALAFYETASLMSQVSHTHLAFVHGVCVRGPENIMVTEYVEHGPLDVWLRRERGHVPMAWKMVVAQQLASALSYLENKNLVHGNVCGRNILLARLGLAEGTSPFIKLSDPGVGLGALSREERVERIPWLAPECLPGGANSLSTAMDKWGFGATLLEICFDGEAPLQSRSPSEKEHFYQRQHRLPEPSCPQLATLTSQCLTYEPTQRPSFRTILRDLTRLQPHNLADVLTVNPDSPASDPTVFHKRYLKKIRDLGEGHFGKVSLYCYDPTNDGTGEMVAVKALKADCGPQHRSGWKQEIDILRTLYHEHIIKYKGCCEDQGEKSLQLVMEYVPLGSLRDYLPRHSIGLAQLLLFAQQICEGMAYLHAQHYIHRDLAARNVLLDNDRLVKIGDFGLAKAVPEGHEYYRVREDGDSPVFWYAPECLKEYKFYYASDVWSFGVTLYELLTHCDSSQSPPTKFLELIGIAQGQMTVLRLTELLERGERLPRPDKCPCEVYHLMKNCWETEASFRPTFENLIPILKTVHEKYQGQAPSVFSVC
Tyrosine-protein kinase BTK (Homo sapiens), sequence (Q06187 whole entry): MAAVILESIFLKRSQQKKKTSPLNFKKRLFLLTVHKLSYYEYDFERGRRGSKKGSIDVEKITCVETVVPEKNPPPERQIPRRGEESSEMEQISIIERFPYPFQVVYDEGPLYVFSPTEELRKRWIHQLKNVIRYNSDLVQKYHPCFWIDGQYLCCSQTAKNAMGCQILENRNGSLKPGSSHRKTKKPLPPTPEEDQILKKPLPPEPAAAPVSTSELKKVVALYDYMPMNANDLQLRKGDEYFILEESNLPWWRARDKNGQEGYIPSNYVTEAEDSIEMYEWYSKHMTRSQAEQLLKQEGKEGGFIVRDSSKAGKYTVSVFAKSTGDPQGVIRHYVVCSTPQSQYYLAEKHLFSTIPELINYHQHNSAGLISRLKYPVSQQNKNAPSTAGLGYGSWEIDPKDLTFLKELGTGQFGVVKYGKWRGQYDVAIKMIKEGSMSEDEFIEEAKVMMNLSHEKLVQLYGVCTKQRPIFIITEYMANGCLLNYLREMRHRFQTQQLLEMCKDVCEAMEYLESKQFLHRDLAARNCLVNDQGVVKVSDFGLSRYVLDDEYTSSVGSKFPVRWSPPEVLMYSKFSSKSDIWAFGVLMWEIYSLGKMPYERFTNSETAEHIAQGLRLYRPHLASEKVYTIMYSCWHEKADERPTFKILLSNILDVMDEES
Ankyrin repeat and protein kinase domain-containing protein 1 (Homo sapiens), sequence (Q8NFD2 whole entry, the tested form may be a part): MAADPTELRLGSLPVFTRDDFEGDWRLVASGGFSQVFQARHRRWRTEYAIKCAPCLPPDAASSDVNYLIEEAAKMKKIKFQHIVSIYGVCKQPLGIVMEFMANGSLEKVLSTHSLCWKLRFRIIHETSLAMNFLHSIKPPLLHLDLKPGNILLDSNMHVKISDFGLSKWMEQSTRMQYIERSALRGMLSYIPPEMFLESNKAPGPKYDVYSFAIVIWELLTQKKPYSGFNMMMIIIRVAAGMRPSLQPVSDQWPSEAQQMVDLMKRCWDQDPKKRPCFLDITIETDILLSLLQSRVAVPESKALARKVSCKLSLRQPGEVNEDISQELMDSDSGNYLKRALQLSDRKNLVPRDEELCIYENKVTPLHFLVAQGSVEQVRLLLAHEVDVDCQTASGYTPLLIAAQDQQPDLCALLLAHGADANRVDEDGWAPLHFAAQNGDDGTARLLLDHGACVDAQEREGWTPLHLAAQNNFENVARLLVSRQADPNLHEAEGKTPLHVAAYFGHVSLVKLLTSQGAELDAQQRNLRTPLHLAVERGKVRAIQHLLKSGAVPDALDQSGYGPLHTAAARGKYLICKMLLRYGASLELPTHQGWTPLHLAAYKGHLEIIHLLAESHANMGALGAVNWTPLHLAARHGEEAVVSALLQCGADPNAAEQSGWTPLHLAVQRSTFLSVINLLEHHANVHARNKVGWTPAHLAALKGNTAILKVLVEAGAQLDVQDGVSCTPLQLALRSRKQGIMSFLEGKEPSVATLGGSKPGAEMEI
5-hydroxytryptamine receptor 2A (Homo sapiens), sequence (P28223 whole entry): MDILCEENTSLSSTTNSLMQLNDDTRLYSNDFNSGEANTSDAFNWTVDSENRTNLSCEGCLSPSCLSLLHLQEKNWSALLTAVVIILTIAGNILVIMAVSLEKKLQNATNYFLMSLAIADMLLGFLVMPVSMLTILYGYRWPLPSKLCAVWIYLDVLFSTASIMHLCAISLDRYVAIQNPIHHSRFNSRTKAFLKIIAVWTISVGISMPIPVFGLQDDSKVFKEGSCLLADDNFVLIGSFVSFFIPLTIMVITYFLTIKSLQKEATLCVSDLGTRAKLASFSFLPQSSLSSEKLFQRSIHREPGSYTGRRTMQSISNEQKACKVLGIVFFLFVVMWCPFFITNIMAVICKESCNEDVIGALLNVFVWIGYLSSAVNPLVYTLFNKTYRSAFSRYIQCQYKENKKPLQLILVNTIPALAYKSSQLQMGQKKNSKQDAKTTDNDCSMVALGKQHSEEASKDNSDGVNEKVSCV
Tyrosine-protein kinase Mer (Homo sapiens), sequence (Q12866 whole entry): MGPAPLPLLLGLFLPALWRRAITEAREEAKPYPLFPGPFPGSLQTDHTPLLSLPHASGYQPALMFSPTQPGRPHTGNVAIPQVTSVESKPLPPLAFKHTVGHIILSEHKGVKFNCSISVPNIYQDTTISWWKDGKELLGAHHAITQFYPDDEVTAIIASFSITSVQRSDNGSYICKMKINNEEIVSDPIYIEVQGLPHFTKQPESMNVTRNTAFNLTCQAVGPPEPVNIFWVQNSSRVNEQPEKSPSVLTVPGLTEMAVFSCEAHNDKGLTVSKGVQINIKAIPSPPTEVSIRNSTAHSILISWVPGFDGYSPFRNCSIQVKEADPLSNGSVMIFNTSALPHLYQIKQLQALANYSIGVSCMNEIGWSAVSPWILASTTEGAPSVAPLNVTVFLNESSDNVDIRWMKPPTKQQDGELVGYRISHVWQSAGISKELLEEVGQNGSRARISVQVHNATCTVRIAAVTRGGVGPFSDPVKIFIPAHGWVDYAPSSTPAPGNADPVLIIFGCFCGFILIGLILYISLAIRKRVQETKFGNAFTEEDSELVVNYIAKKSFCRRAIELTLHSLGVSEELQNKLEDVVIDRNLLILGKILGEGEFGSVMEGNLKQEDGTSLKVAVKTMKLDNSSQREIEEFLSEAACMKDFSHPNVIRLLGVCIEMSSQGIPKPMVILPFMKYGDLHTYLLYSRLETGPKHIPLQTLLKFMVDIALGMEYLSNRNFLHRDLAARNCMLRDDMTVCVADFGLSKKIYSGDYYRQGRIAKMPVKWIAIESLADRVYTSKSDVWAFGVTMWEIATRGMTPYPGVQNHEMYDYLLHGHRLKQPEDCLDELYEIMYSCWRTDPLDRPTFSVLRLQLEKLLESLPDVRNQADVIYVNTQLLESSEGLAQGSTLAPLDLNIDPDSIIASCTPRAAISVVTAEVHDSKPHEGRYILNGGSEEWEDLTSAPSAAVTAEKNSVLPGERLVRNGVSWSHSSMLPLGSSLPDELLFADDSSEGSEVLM
Aurora kinase A (Homo sapiens), sequence (O14965 whole entry): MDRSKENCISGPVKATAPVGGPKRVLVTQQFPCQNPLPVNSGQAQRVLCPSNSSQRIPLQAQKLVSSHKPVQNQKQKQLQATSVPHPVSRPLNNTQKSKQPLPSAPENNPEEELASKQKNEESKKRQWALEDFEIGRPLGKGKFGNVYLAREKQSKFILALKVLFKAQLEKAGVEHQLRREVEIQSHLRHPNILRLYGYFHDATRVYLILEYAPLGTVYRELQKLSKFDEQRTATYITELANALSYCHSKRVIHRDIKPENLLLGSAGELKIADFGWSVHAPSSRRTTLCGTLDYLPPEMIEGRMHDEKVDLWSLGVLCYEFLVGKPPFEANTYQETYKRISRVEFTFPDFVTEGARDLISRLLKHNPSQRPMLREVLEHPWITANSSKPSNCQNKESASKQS

Question: Which results are given for CCS(=O)(=O)c1cc2cc(C[C@](O)(CC(C)(C)c3ccc(F)cc3C(N)=O)C(F)(F)F)[nH]c2cn1?
Answer: residual activity [1]: 95%; residual activity [2]: 94%; residual activity [3]: 90%; residual activity [4]: 100%; residual activity [5]: 78%; residual activity [6]: 100%; residual activity [7]: 89%; residual activity [8]: 88%; residual activity [9]: 100%; residual activity [10]: 100%; residual activity [11]: 99%; residual activity [12]: 94%; residual activity [13]: 74%; residual activity [14]: 100%; residual activity [15]: 100%; residual activity [16]: 81%; residual activity [17]: 100%; residual activity [18]: 97%; residual activity [19]: 100%; residual activity [20]: 100%; residual activity [21]: 98%; residual activity [22]: 98%; residual activity [23]: 100%; residual activity [24]: 100%; residual activity [25]: 93%; residual activity [26]: 83%; residual activity [27]: 100%; residual activity [28]: 95%; residual activity [29]: 100%; residual activity [30]: 100%; residual activity [31]: 74%; residual activity [32]: 100%; residual activity [33]: 80%; residual activity [34]: 80%; residual activity [35]: 100%; residual activity [36]: 100%; residual activity [37]: 100%; residual activity [38]: 100%; residual activity [39]: 100%; residual activity [40]: 100%; inhibition [41]: 12.6%; inhibition [42]: -1.62%; inhibition [43]: 24.7%

Question: With CCS(=O)(=O)c1cc2cc(C[C@@](O)(CC(C)(C)c3ccc(F)cc3C(N)=O)C(F)(F)F)[nH]c2cn1 as the molecule, how does the residual activity [1] read?
Answer: 78%

Question: What about the residual activity [2] of the same molecule?
Answer: 100%

Question: What about the residual activity [3] of the same molecule?
Answer: 61%

Question: What about the residual activity [4] of the same molecule?
Answer: 67%

Question: What about the residual activity [5] of the same molecule?
Answer: 100%

Question: And the residual activity [6]?
Answer: 100%

Question: What about the residual activity [7] of the same molecule?
Answer: 70%

Question: And the residual activity [8]?
Answer: 88%

Question: And the residual activity [9]?
Answer: 100%

Question: And the residual activity [10]?
Answer: 81%

Question: And the residual activity [11]?
Answer: 100%

Question: And the residual activity [12]?
Answer: 100%

Question: And the residual activity [13]?
Answer: 76%

Question: What about the residual activity [14] of the same molecule?
Answer: 100%

Question: What about the residual activity [15] of the same molecule?
Answer: 100%

Question: What about the residual activity [16] of the same molecule?
Answer: 67%

Question: And the residual activity [17]?
Answer: 95%

Question: What about the residual activity [18] of the same molecule?
Answer: 81%

Question: And the residual activity [19]?
Answer: 100%

Question: What about the residual activity [20] of the same molecule?
Answer: 83%

Question: What about the residual activity [21] of the same molecule?
Answer: 51%

Question: And the residual activity [22]?
Answer: 77%

Question: And the residual activity [23]?
Answer: 81%

Question: What about the residual activity [24] of the same molecule?
Answer: 42%

Question: What about the residual activity [25] of the same molecule?
Answer: 93%

Question: What about the residual activity [26] of the same molecule?
Answer: 82%

Question: What about the residual activity [27] of the same molecule?
Answer: 100%

Question: What about the residual activity [28] of the same molecule?
Answer: 67%

Question: And the residual activity [29]?
Answer: 100%

Question: And the residual activity [30]?
Answer: 100%

Question: And the residual activity [31]?
Answer: 80%

Question: And the residual activity [32]?
Answer: 51%

Question: And the residual activity [33]?
Answer: 79%

Question: What about the residual activity [34] of the same molecule?
Answer: 78%

Question: And the residual activity [35]?
Answer: 97%

Question: What about the residual activity [36] of the same molecule?
Answer: 67%

Question: What about the residual activity [37] of the same molecule?
Answer: 100%

Question: What about the residual activity [38] of the same molecule?
Answer: 100%

Question: And the residual activity [39]?
Answer: 88%

Question: And the residual activity [40]?
Answer: 82%

Question: What about the inhibition [41] of the same molecule?
Answer: 14.1%

Question: And the inhibition [42]?
Answer: 3.48%

Question: And the inhibition [43]?
Answer: 6.5%
